Reference: patent publication US9511134B2, “Inducing immune responses to influenza virus using polypeptide and nucleic acid compositions” (priority 2006, dated 2016)
Several values for one entry are separate records, joined by “and”; a condition that tells them apart may be missing. Equal entries are not always repeated. Where two headings read alike, the source gives them in different places.

How the values were obtained:
Assay in all cases: biochemical
Assay type in all cases: binding
DRB1*1501 = biological target: T1, DRB1*1501 (Homo sapiens, UniProt P01903+P01911); settings: read-out: IC50 nM to purified HLA DRB1*1501
T1 construct: made in house; host or cells: EBV-transformed homozygous human B cell lines, transfected fibroblasts or single-allele 721.221 transfectants

DRB1*0404 = DRB1*0404 (Homo sapiens, UniProt P01903+P01911, A100R/A169T/F76Y/I96L/K127E/L162R/M171V/N62H/P40V/Q125Y/R42H/S133A/S149N/S66Y/V209L/W38E)
DRB1*1101 = DRB1*1101 (Homo sapiens, UniProt P01903+P01911, A100R/A169T/A87E/I96F/K41T/L162R/M171V/P40S/Q125H/Q178H/Q39Y/Q99D/R42S/S66Y/T262R/V115G/W38E); settings: read-out: IC50 nM to purified HLA DRB1*1101
Sequence of DRB1*1101 (P01903 26-254 limits assumed, other chains not shown): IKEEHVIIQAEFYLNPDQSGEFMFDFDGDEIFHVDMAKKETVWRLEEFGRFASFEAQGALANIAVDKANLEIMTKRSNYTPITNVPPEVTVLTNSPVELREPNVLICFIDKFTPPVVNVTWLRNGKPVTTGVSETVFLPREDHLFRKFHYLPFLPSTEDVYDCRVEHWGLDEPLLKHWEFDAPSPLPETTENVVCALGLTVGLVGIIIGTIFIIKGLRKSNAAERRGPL

DRB1*0405 = DRB1*0405 (Homo sapiens, UniProt P01903+P01911, A100R/A169T/D86S/F76Y/I96L/K127E/L162R/M171V/N62H/P40V/Q125Y/R42H/S133A/S149N/S66Y/V115G/V209L/W38E); settings: read-out: IC50 nM to purified HLA DRB1*0405
DRB1*0101 = biological target: T2, DRB1*0101 (Homo sapiens, UniProt P01903+P01911, A100R/D57E/F55L/F60I/F76Y/I96L/L162R/M171V/P40L/Q125E/R42F/V115G/Y59C)
T2 construct: made in house; host or cells: EBV-transformed homozygous human B cell lines, transfected fibroblasts or single-allele 721.221 transfectants

DRB1*0701 = DRB1*0701 (Homo sapiens, UniProt P01903+P01911, A100R/A102G/A103Q/D57E/D86V/E43K/F76Y/K127E/L162R/M171V/P40G/Q125H/Q99D/R33Q/R42Y/R54Q/S133A/S66F/T210M/V115G/Y107V/Y59L/Y89S)
DRB1*0401 = biological target: T3, DRB1*0401 (Homo sapiens, UniProt P01903+P01911, A100K/A169T/F76Y/I96L/K127E/L162R/M171V/N62H/P40V/Q125Y/R42H/S133A/S149N/S66Y/V115G/V209L/W38E); settings: read-out: IC50 nM to purified HLA DRB1*0401
T3 construct: made in house; host or cells: EBV-transformed homozygous human B cell lines, transfected fibroblasts or single-allele 721.221 transfectants

DRB1*0301 = biological target: T4, DRB1*0301 (Homo sapiens, UniProt P01903+P01911, A100K/A102G/A103R/A169T/F55Y/I96L/K41T/L162R/M171V/P40S/Q125H/Q178H/Q39Y/R42S/S66N/T106N/T262R/W38E/Y61H)
T4 construct: made in house; host or cells: EBV-transformed homozygous human B cell lines, transfected fibroblasts or single-allele 721.221 transfectants
T4 sequence (P01903 26-254, other chains not shown): as the sequence (P01903 26-254 limits assumed, other chains not shown) above

DRB4*0101 = biological target: T5, DRB4*0101 (Homo sapiens, UniProt P01903+P13762, G164S); settings: IC50 nM to purified HLA DRB4*0101
T5 construct: made in house; host or cells: EBV-transformed homozygous human B cell lines, transfected fibroblasts or single-allele 721.221 transfectants

DRB1*1302 = DRB1*1302 (Homo sapiens, UniProt P01903+P01911, A100E/A169T/K41T/L162R/M171V/P40S/Q125H/Q178H/Q39Y/Q99D/R42S/S66N/T262R/V115G/W38E/Y61H); settings: read-out: IC50 nM to purified HLA DRB1*1302
Sequence of DRB1*1302 (P01903 26-254 limits assumed, other chains not shown): as above

DRB5*0101 = biological target: T6, DRB5*0101 (Homo sapiens, UniProt P01903+Q30154)
T6 construct: made in house; host or cells: EBV-transformed homozygous human B cell lines, transfected fibroblasts or single-allele 721.221 transfectants

DRB1*0802 = DRB1*0802 (Homo sapiens, UniProt P01903+P01911, A100R/A103L/A169T/F76Y/H45Y/I96F/K41T/L162R/M171V/P40S/Q125H/Q178H/Q39Y/Q99D/R218S/R42G/S66Y/V115G/W38E)
[1] = IC50 nM to purified HLA DRB1*0404
[2] = IC50 nM to purified HLA DRB1*0101

SMILES: CC[C@H](C)[C@H](NC(=O)CNC(=O)[C@@H](NC(=O)[C@@H](NC(=O)[C@H](CO)NC(=O)[C@H](C)NC(=O)[C@H](C)NC(=O)[C@@H](NC(=O)[C@@H](NC(=O)[C@H](CC(C)C)NC(=O)[C@@H]1CCCN1C(=O)[C@@H](N)CC(=O)O)C(C)C)C(C)C)[C@@H](C)CC)[C@@H](C)CC)C(=O)N[C@@H](CC(C)C)C(=O)N[C@@H](Cc1c[nH]cn1)C(=O)N[C@@H](CC(C)C)C(=O)O [Flu.M2.27]
- IC50 (DRB1*1501): 2200 nM
- IC50 (DRB1*0404; read-out: IC50 nM to purified HLA DRB1*0404): 23 nM
- IC50 (DRB1*1101): 1800 nM
- IC50 (DRB1*0405): 630 nM
- IC50 (DRB1*0101; read-out: IC50 nM to purified HLA DRB1*0101): 78 nM
- IC50 (DRB1*0701; read-out: IC50 nM to purified HLA DRB1*0701): 1300 nM
- IC50 (DRB1*0401): 92 nM

SMILES: CC[C@H](C)[C@H](NC(=O)CNC(=O)[C@@H]1CCCN1C(=O)[C@H](Cc1c[nH]cn1)NC(=O)[C@H](CO)NC(=O)[C@H](CCC(=O)O)NC(=O)[C@H](CCC(=O)O)NC(=O)[C@H](CC(C)C)NC(=O)[C@H](Cc1ccccc1)NC(=O)[C@H](C)NC(=O)[C@H](CCSC)NC(=O)[C@H](C)N)C(=O)N[C@@H](Cc1ccccc1)C(=O)N[C@@H](CCC(=O)O)C(=O)N[C@@H](CC(N)=O)C(=O)O [Flu.PB1.94]
- IC50 (DRB1*0301): 400 nM
- IC50 (DRB1*0701): 84 nM

SMILES: CC[C@H](C)[C@H](NC(=O)[C@H](CO)NC(=O)[C@H](CCC(N)=O)NC(=O)[C@H](CCC(=O)O)NC(=O)[C@H](CC(=O)O)NC(=O)[C@H](CCCNC(=N)N)NC(=O)CNC(=O)[C@H](CO)NC(=O)[C@@H](NC(=O)[C@@H](NC(=O)[C@H](CC(C)C)NC(=O)[C@H](CCC(N)=O)NC(=O)[C@@H](NC(=O)[C@@H](N)CC(C)C)[C@@H](C)CC)[C@@H](C)CC)C(C)C)C(=O)N[C@@H](C)C(=O)O [Flu.PB2.384]
- IC50 (DRB1*1501): 420 nM
- IC50 (DRB4*0101): 9.9 nM
- IC50 (DRB1*0404; [1]): 90 nM
- IC50 (DRB1*1101): 2010 nM
- IC50 (DRB1*0405): 460 nM
- IC50 (DRB1*0101; [2]): 3230 nM
- IC50 (DRB1*0301): 53 nM
- IC50 (DRB1*1302): 4680 nM
- IC50 (DRB1*0401): 83 nM

SMILES: CC[C@H](C)[C@H](NC(=O)[C@H](CC(C)C)NC(=O)[C@@H](NC(=O)[C@@H](N)CC(N)=O)C(C)C)C(=O)NCC(=O)N[C@@H](CCC(N)=O)C(=O)NCC(=O)N[C@@H](CC(=O)O)C(=O)N[C@H](C(=O)N[C@H](C(=O)N[C@@H](CC(C)C)C(=O)N[C@H](C(=O)N[C@@H](CCSC)C(=O)N[C@@H](CCCCN)C(=O)N[C@@H](CCCNC(=N)N)C(=O)O)C(C)C)C(C)C)C(C)C [Flu.PB2.726]
- IC50 (DRB5*0101): 4200 nM
- IC50 (DRB1*0802): 1080 nM

SMILES: CC[C@H](C)[C@H](NC(=O)[C@H](CCC(=O)O)NC(=O)CNC(=O)[C@@H](N)C(C)C)C(=O)N[C@@H](CO)C(=O)N1CCC[C@H]1C(=O)N[C@@H](CC(C)C)C(=O)N1CCC[C@H]1C(=O)N[C@@H](CO)C(=O)N[C@@H](CC(C)C)C(=O)N1CCC[C@H]1C(=O)NCC(=O)N[C@@H](Cc1c[nH]cn1)C(=O)N[C@H](C(=O)N[C@@H](CC(=O)O)C(=O)O)[C@@H](C)O [Flu.NS1.160]
- IC50 (DRB1*1501; Table 4): 38 nM
- IC50 (DRB1*1501): 38 nM and 28 nM
- IC50 (DRB1*0404; [1]): 8.5 nM
- IC50 (DRB1*1101): 90 nM
- IC50 (DRB1*0101; [2]): 14 nM and 12 nM
- IC50 (DRB1*0101; IC50 nM to purified HLA DRB1*0101, Table 4): 14 nM
- IC50 (DRB1*0301): > 10000 nM
- IC50 (DRB1*1302): > 10000 nM
- IC50 (DRB1*0701): > 10000 nM
- IC50 (DRB1*0401; Table 4): 31 nM
- IC50 (DRB1*0401): 31 nM and 16 nM

SMILES: CC[C@H](C)[C@H](NC(=O)CNC(=O)[C@@H](NC(=O)[C@@H]1CCCN1C(=O)[C@H](CCCNC(=N)N)NC(=O)[C@@H](N)CCCNC(=N)N)C(C)C)C(=O)N[C@@H](CO)C(=O)N[C@@H](CO)C(=O)N[C@@H](CCSC)C(=O)N[C@H](C(=O)N[C@@H](CCC(=O)O)C(=O)N[C@@H](C)C(=O)N[C@@H](CCSC)C(=O)N[C@H](C(=O)N[C@@H](CO)C(=O)O)C(C)C)C(C)C [Flu.PB1.709]
- IC50 (DRB1*1501): 240 nM
- IC50 (DRB1*0701): 1800 nM

SMILES: CSCC[C@H](NC(=O)[C@@H](NC(=O)[C@H](CCCNC(=N)N)NC(=O)[C@@H](N)CC(=O)O)C(C)C)C(=O)N[C@H](C(=O)N[C@@H](CO)C(=O)N1CCC[C@H]1C(=O)N[C@@H](CC(C)C)C(=O)N[C@@H](C)C(=O)N[C@H](C(=O)N[C@H](C(=O)N[C@@H](Cc1c[nH]c2ccccc12)C(=O)N[C@@H](Cc1c[nH]c2ccccc12)C(=O)N[C@@H](CC(N)=O)C(=O)N[C@@H](CCCNC(=N)N)C(=O)O)[C@@H](C)O)C(C)C)C(C)C [Flu.PB2.90]
- IC50 (DRB1*0405): 16000 nM
- IC50 (DRB1*0101; [2]): 93 nM
- IC50 (DRB1*0802): 3550 nM

SMILES: CC[C@H](C)[C@H](NC(=O)[C@H](CCC(=O)O)NC(=O)[C@H](Cc1ccccc1)NC(=O)[C@@H](N)CCCNC(=N)N)C(=O)N[C@H](C(=O)NCC(=O)N[C@H](C(=O)N[C@@H](CCSC)C(=O)N[C@@H](CCCNC(=N)N)C(=O)N[C@@H](CCCNC(=N)N)C(=O)N[C@@H](CC(C)C)C(=O)N[C@@H](C)C(=O)N[C@@H](CC(=O)O)C(=O)N[C@@H](CCC(N)=O)C(=O)N[C@@H](CO)C(=O)O)[C@@H](C)O)[C@@H](C)O [Flu.PA.207]
- IC50 (DRB5*0101): 9.2 nM
- IC50 (DRB1*1101): 19 nM

SMILES: CC[C@H](C)[C@H](NC(=O)[C@H](CCSC)NC(=O)[C@H](CO)NC(=O)[C@@H](N)CCC(=O)O)C(=O)N[C@@H](CCC(=O)O)C(=O)N[C@@H](C)C(=O)N[C@@H](CCC(=O)O)C(=O)N[C@@H](CO)C(=O)N[C@@H](CO)C(=O)N[C@H](C(=O)N[C@@H](CCCCN)C(=O)N[C@@H](CCC(=O)O)C(=O)N[C@@H](CCCCN)C(=O)N[C@@H](CC(=O)O)C(=O)N[C@@H](CCSC)C(=O)O)C(C)C [Flu.PA.596]
- IC50 (DRB5*0101): 600 nM
- IC50 (DRB1*0404; [1]): 121 nM
- IC50 (DRB1*1101): 12000 nM
- IC50 (DRB1*0405): 72 nM

SMILES: CSCC[C@H](NC(=O)[C@H](CO)NC(=O)[C@H](CCCCN)NC(=O)[C@H](C)N)C(=O)N[C@@H](CCC(=O)O)C(=O)N[C@@H](Cc1ccc(O)cc1)C(=O)N[C@@H](CC(=O)O)C(=O)N[C@@H](C)C(=O)N[C@H](C(=O)N[C@@H](C)C(=O)N[C@H](C(=O)N[C@H](C(=O)N[C@@H](Cc1c[nH]cn1)C(=O)N[C@@H](CO)C(=O)N[C@@H](Cc1c[nH]c2ccccc12)C(=O)O)[C@@H](C)O)[C@@H](C)O)C(C)C [Flu.PB1.655]
- IC50 (DRB5*0101): 3530 nM
- IC50 (DRB1*1501): 1990 nM
- IC50 (DRB4*0101): 6340 nM
- IC50 (DRB1*0404; [1]): 646 nM
- IC50 (DRB1*1101): 6620 nM
- IC50 (DRB1*0405): 626 nM
- IC50 (DRB1*0101; [2]): 202 nM
- IC50 (DRB1*0301): 909 nM
- IC50 (DRB1*1302): 2180 nM
- IC50 (DRB1*0701): 292 nM
- IC50 (DRB1*0401): 53 nM

SMILES: CC[C@H](C)[C@H](NC(=O)[C@H](CC(N)=O)NC(=O)[C@H](Cc1ccc(O)cc1)NC(=O)[C@H](CC(C)C)NC(=O)[C@H](CC(N)=O)NC(=O)[C@@H]1CCCN1)C(=O)N[C@@H](CCCNC(=N)N)C(=O)N[C@@H](CC(N)=O)C(=O)N[C@@H](CC(C)C)C(=O)N[C@@H](Cc1c[nH]cn1)C(=O)N[C@H](C(=O)N1CCC[C@H]1C(=O)N[C@@H](CCC(=O)O)C(=O)N[C@H](C(=O)N[C@@H](CS)C(=O)O)C(C)C)[C@@H](C)CC [Flu.PB1.599]
- IC50 (DRB5*0101; read-out: IC50 nM to purified HLA DRB5*0101): 2310 nM
